Literature values in paper PMC11246588, “New 1,2,4-oxadiazole derivatives as potential multifunctional agents for the treatment of Alzheimer’s disease: design, synthesis, and biological evaluation” (BMC Chemistry, 2024).

Columns and labels:
Set-up in all cases: method as in PMID 18550375, PMID 33017743, PMID 36223681, PMID 34752955, PMID 26077890
Conditions in all cases: Fig. 1; ref [50]–[55]; cited from earlier work
Aβ self-aggregation = test system: Aβ self-aggregation
BChE = test system: BChE
hMAO B = test system: hMAO B

Structure (SMILES) | Inhibited Aβ self-aggregation (Aβ self-aggregation) | IC50 (BChE) | IC50 (hMAO B)
O=C(CNc1ccc(F)cc1)Nc1ccc(-c2nc(-c3ccnc(Nc4ccc(OC(F)(F)F)cc4)c3)no2)cc1 [IV] | 51.91% | 1280 nM | –
COc1cc(-c2ccc(-c3nc(-c4ccc5[nH]ncc5c4)no3)cc2)cc(OC)c1OC [VI] | – | – | 52 nM
